Test results published in patent US20030216257A1, “1-aryl-4-alkyl halide-2(1h)-pyridones and their use as herbicides” (priority 2000, published 2003).

Columns and labels:
Experiment in all cases: Greenhouse experiments, herbicidal action (pre-/post-emergence treatment)
Assay type in all cases: in vivo
Details in all cases: post-emergence rate 0.0313 and 0.0156 kg of a.S./ha, scale 0 to 100
SETFA (giant foxtail) = tested on: SETFA (giant foxtail)
Text: (§1) The culture containers used were plastic pots with loamy sand containing approximately 3.0% of humus as the substrate. The seeds of the test plants were sown separately for each species.
(§2) For the pre-emergence treatment, the active compounds, which had been suspended or emulsified in water, were applied directly after seeding by means of finely distributing nozzles. The containers were irrigated gently to promote germination and growth and subsequently covered with transparent plastic hoods until the plants had taken root. This cover causes uniform germination of the test plants unless this was not adversely affected by the active compounds.
(§3) For the post-emergence treatment, the test plants were initially grown to a height of 3 to 15 cm, depending on the habit, and then treated with the active compounds which had been suspended or emulsified in water. To this end, the test plants were either sown directly and cultivated in the same containers, or they were initially cultivated separately as seedlings and transplanted into the test containers a few days prior to the treatment. The application rate for the post-emergence treatment was 0.0313 and 0.0156 kg of a. S./ha.
(§4) The plants were kept at temperatures of 10-25° C. and 20-35° C., depending on the species. The test period extended over 2 to 4 weeks. During this time, the plants were tended, and their reaction to the individual treatments was evaluated.
(§5) Evaluation was carried out using a scale from 0 to 100. 100 means no emergence of the plants, or complete destruction of at least the above-ground parts, and 0 means no damage or normal course of growth.
(§6) The plants used in the greenhouse experiments were of the following species: […]

COMBE (dayflower) = tested on: COMBE (dayflower)
Text: as §1, §2, §3, §4, §5, §6

[1] = tested on: GALAP (catchweed bedstraw)
Text: as §1, §2, §3, §4, §5, §6

AMARE (redroot pigweed) = tested on: AMARE (redroot pigweed)
Text: as §1, §2, §3, §4, §5, §6

ABUTH (velvet leaf) = tested on: ABUTH (velvet leaf)
Text: as §1, §2, §3, §4, §5, §6

Measured: herbicidal activity against harmful plant

CC(C)OC(=O)c1cc(-n2c(Cl)cc(C(F)(F)F)cc2=O)c(F)cc1Cl [Example 1, Isopropyl 2-Chloro-5-[2-chloro-6-oxo-4-(trifluoromethyl)-1-(6H)-pyridinyl]-4-fluorobenzoate]
very good activity: all assays above
